# Calls of active or inactive are those of the source. The calls are words filed in the database; no cut-off is given here.
# Legend:
# [1] = Toxicity in wild fox assessed as ataxia at 32 mg/kg, ip; type: organism-based; design: dose 32 mg/kg, route intraperitoneal; conditions: vulpes vulpes, in vivo
# Vulpes vulpes [2] = test: Neuroleptic activity in wild fox assessed as taming effect at 32 mg/kg, ip; type: functional, organism-based; design: dose 32 mg/kg
# Mus musculus [3] = test: Neuroleptic activity in ip dosed mouse assessed as blockade of traction reflex by measuring failure to grasp wire with hind paws measured for 5 secs; type: functional
# Gerbillinae [4] = test: Neuroleptic activity in gerbil assessed as escape latency time at 16 mg/kg, ip measured up to 50 mins by sidman avoidance test relative to control; type: functional; conditions: route intraperitoneal
# [5] = Toxicity in ip dosed mouse; type: organism-based; conditions: in vivo
# Gerbillinae [6] = test: Neuroleptic activity in gerbil assessed as escape latency time at 2 mg/kg, ip measured up to 50 mins by sidman avoidance test relative to control; type: functional; conditions: route intraperitoneal
# Rhesus monkey [7] = test: Toxicity in monkey assessed as ataxia at 16 mg/kg, ip; type: organism-based, Macaca mulatta; design: dose 16 mg/kg, route intraperitoneal; conditions: in vivo
# [8] = Toxicity in po dosed mouse; type: organism-based; conditions: in vivo
# Gerbillinae [9] = test: Neuroleptic activity in gerbil assessed as escape latency time at 8 mg/kg, ip measured up to 50 mins by sidman avoidance test relative to control; type: functional; conditions: route intraperitoneal
# Mus musculus [10] = test: Neuroleptic activity in ip dosed mouse assessed as blockade of prehensile reflex by measuring failure to hang measured for 5 secs; type: functional
# Gerbillinae [11] = test: Neuroleptic activity in gerbil assessed as escape latency time at 4 mg/kg, ip measured up to 50 mins by sidman avoidance test relative to control; type: functional; conditions: route intraperitoneal
# [12] = Toxicity in wild fox assessed as ataxia at 16 mg/kg, ip; type: organism-based; design: dose 16 mg/kg, route intraperitoneal; conditions: vulpes vulpes, in vivo
# Gerbillinae [13] = test: Neuroleptic activity in ip dosed gerbil up to 50 mins by sidman avoidance test; type: functional; conditions: read-out: MED
# Rhesus monkey [14] = test: Neuroleptic activity in monkey assessed as taming effect at 16 mg/kg, ip; type: functional, organism-based; design: dose 16 mg/kg; conditions: Macaca mulatta
# Felis catus = test: Induction of muscle relaxant effect in cat at 20 mg/kg, iv; type: functional, organism-based; design: dose 20 mg/kg
# Vulpes vulpes [15] = test: Neuroleptic activity in wild fox assessed as taming effect at 16 mg/kg, ip; type: functional, organism-based; design: dose 16 mg/kg
# Mus musculus [16] = test: Neuroleptic activity in ip dosed mouse assessed as blockade of righting reflex by measuring failure to right to normal position measured for 30 secs; type: functional
# Mus musculus [17] = test: Neuroleptic activity in ip dosed mouse assessed as blockade of corneal reflex by measuring failure to blink; type: functional; conditions: Cornea
# Mus musculus [18] = test: Neuroleptic activity in mouse assessed as blockade of corneal reflex by measuring failure to blink at 640 mg/kg, ip; type: functional, organism-based; design: dose 640 mg/kg; conditions: Cornea
# Mus musculus [19] = test: Neuroleptic activity in mouse assessed as blockade of prehensile reflex by measuring failure to hang at 640 mg/kg, ip measured for 5 secs; type: functional, organism-based; design: dose 640 mg/kg
# Mus musculus [20] = test: Neuroleptic activity in mouse assessed as blockade of righting reflex by measuring failure to right to normal position at 640 mg/kg, ip measured for 30 secs; type: functional, organism-based; design: dose 640 mg/kg
# Mus musculus [21] = test: Neuroleptic activity in mouse assessed as blockade of traction reflex by measuring failure to grasp wire with hind paws at 640 mg/kg, ip measured for 5 secs; type: functional, organism-based; design: dose 640 mg/kg
# Gerbillinae [22] = test: Neuroleptic activity in gerbil assessed as escape latency time at 40 mg/kg, ip measured up to 50 mins by sidman avoidance test relative to control; type: functional; conditions: route intraperitoneal
# Gerbillinae [23] = test: Neuroleptic activity in gerbil assessed as escape latency time at 80 mg/kg, ip measured up to 50 mins by sidman avoidance test relative to control; type: functional; conditions: route intraperitoneal
# Gerbillinae [24] = test: Neuroleptic activity in gerbil assessed as escape latency time at 20 mg/kg, ip measured up to 50 mins by sidman avoidance test relative to control; type: functional; conditions: route intraperitoneal
# Gerbillinae [25] = test: Neuroleptic activity in gerbil assessed as escape latency time at 2.5 mg/kg, ip measured up to 50 mins by sidman avoidance test relative to control; type: functional; conditions: route intraperitoneal
# Gerbillinae [26] = test: Neuroleptic activity in gerbil assessed as escape latency time at 5 mg/kg, ip measured up to 50 mins by sidman avoidance test relative to control; type: functional; conditions: route intraperitoneal
# Gerbillinae [27] = test: Neuroleptic activity in gerbil assessed as escape latency time at 10 mg/kg, ip measured up to 50 mins by sidman avoidance test relative to control; type: functional; conditions: route intraperitoneal
# [28] = Toxicity in wild fox assessed as ataxia at 4 mg/kg, ip; type: organism-based; design: dose 4 mg/kg, route intraperitoneal; conditions: vulpes vulpes, in vivo
# Vulpes vulpes [29] = test: Neuroleptic activity in wild fox assessed as taming effect at 4 mg/kg, ip; type: functional, organism-based; design: dose 4 mg/kg
# Gerbillinae [30] = test: Neuroleptic activity in gerbil assessed as escape latency time at 1 mg/kg, ip measured up to 50 mins by sidman avoidance test relative to control; type: functional; conditions: route intraperitoneal
# Gerbillinae [31] = test: Neuroleptic activity in gerbil assessed as escape latency time at 0.5 mg/kg, ip measured up to 50 mins by sidman avoidance test relative to control; type: functional; conditions: route intraperitoneal
# [32] = Mus musculus, ip, read-out: ED50
smiles,measurement,setting,value
CNC1=Nc2ccccc2C(c2ccccc2)=[N+]([O-])C1,Activity,[1],Non-toxic
same,Activity,Vulpes vulpes [2],Active
CCN(CC)C(=O)[C@H]1CN2CCc3cc(OC)c(OC)cc3[C@H]2CO1.Cl (racemic),ED50,Mus musculus [3]; [32],100 mg/kg
same,Time,Gerbillinae [4],0.8 s
same,LD50,[5],1100 mg/kg
same,Time,Gerbillinae [6],0.6 s
same,Activity,Rhesus monkey [7],Non-toxic
same,LD50,[8],1400 mg/kg
same,Time,Gerbillinae [9],0.5 s
same,ED50,Mus musculus [10]; [32],400 mg/kg
same,Time,Gerbillinae [11],0.8 s
same,Activity,[12],Non-toxic
same,minimal effective dose,Gerbillinae [13],25 mg/kg
CCN(CC)C(=O)[C@H]1CN2CCc3cc(OC)c(OC)cc3[C@H]2CO1 (racemic),Activity,Rhesus monkey [14],Active
same,Activity,Felis catus,Active
same,Activity,Vulpes vulpes [15],Active
COc1cc2c(cc1OC)[C@H]1CO[C@H](C#N)CN1CC2 (relative stereo),ED50,Mus musculus [3]; [32],180 mg/kg
same,ED50,Mus musculus [10]; [32],> 640 mg/kg
CCN(CC)C(=O)[C@H]1CN2CCc3cc(OC)c(OC)cc3[C@H]2CO1 (relative stereo),ED50,Mus musculus [3]; [32],110 mg/kg
same,ED50,Mus musculus [10]; [32],500 mg/kg
COc1cc2c(cc1OC)[C@H]1CO[C@@H](C(=O)N3CCCC3)CN1CC2 (relative stereo),ED50,Mus musculus [3]; [32],180 mg/kg
same,ED50,Mus musculus [10]; [32],> 640 mg/kg
COc1cc2c(cc1OC)[C@H]1CO[C@@H](C(=O)N3CCCCC3)CN1CC2 (relative stereo),ED50,Mus musculus [3]; [32],180 mg/kg
same,ED50,Mus musculus [10]; [32],280 mg/kg
same,ED50,Mus musculus [16],280 mg/kg
same,ED50,Mus musculus [17],450 mg/kg
COc1cc2c(cc1OC)[C@H]1CO[C@@H](C(=O)N3CCOCC3)CN1CC2 (relative stereo),ED50,Mus musculus [3]; [32],200 mg/kg
same,ED50,Mus musculus [10]; [32],> 640 mg/kg
CCOC(=O)[C@H]1CN2CCc3cc(OC)c(OC)cc3[C@H]2CO1 (relative stereo),Activity,Mus musculus [18],inactive
same,Activity,Mus musculus [19],inactive
same,Activity,Mus musculus [20],inactive
same,Activity,Mus musculus [21],inactive
CCN(CC)C(=O)C1CN2CCc3cc(OC)c(OC)cc3C2CO1 (stereo in doubt; 19),ED50,Mus musculus [3]; [32],125 mg/kg
same,Time,Gerbillinae [22],1.2 s
same,ED50,Mus musculus [10]; [32],400 mg/kg
same,Time,Gerbillinae [23],2.2 s
same,Time,Gerbillinae [24],0.5 s
CCN(CC)C(=O)C1CN2CCc3cc(OC)c(OC)cc3C2CO1 (stereo in doubt; 20),ED50,Mus musculus [3],150 mg/kg
same,Time,Gerbillinae [25],0.5 s
same,Time,Gerbillinae [26],0.6 s
same,Time,Gerbillinae [27],1.2 s
same,ED50,Mus musculus [10],460 mg/kg
same,Time,Gerbillinae [24],2.4 s
CN(C)CCCN1c2ccccc2Sc2ccc(Cl)cc21 [CHLORPROMAZINE],Activity,[28],Non-toxic
same,ED50,Mus musculus [3]; [32],6 mg/kg
same,Activity,Vulpes vulpes [29],Active
same,Time,Gerbillinae [30],1.1 s
same,Time,Gerbillinae [6],0.8 s
same,ED50,Mus musculus [10]; [32],74 mg/kg
same,ED50,Mus musculus [16],115 mg/kg
same,ED50,Mus musculus [17],160 mg/kg
same,Time,Gerbillinae [31],1 s
CCCC(C)(COC(N)=O)COC(N)=O [MEPROBAMATE],ED50,Mus musculus [3]; [32],160 mg/kg
same,ED50,Mus musculus [10]; [32],225 mg/kg
same,ED50,Mus musculus [16],320 mg/kg
same,ED50,Mus musculus [17],400 mg/kg
CCC1(c2ccccc2)C(=O)NC(=O)NC1=O [PHENOBARBITAL],ED50,Mus musculus [3]; [32],64 mg/kg
same,ED50,Mus musculus [10]; [32],82 mg/kg
same,ED50,Mus musculus [16],140 mg/kg
same,ED50,Mus musculus [17],100 mg/kg

# Source: ChEMBL document CHEMBL3271991, “A series of hexahydro[1,4]oxazino[3,4-a]isoquinolines as potential neuroleptics” (J Med Chem, 1978)
